Measurements from EP0412877A1, “Oral galenic form to improve bioavailability” (priority 1989, dated 1991).
Where two headings read alike, the source gives them in different places.

Assays:
[1] = In vitro dissolution kinetics in distilled water and intestinal juice; assay type: physicochemical; conditions: eau distillée and suc intestinal
[2] = Dissolution kinetics of dihydropyridines (figure 7); assay type: physicochemical; conditions: Nifédipine à l'état brut, oxodipine à l'état de coprécipité, without PROSOBEL
Description: On peut en conclure que le PROSOBEL, de façon très inattendue pour l'homme de métier, ralentit la dissolution en milieu aqueux, et permet l'obtention de formes pharmaceutiques originales et nouvelles, de dihydropyridines à biodisponibilité contrôlée.

[3] = human, in vivo, 0 min
Description: (§1) Des comprimés selon l'exemple 3, dosés à 15, 20 et 25mg d'oxodipine, ont été administrés à 6 volontaires sains.

[4] = human, in vivo
[5] = Solubility in water (stated in words); conditions: result in words
[6] = Plasma concentrations after single oral administration of oxodipine forms to 6 healthy subjects; conditions: human, 20 mg
Description: as §1

## CCOC(=O)C1=C(C)NC(C)=C(C(=O)OC)C1c1cccc2c1OCO2 (centres unmarked) [Poudre 20mg, 1,4-dihydro 4-(2′,3′-méthylènedioxyphényl) 3,5-pyridine dicarboxylatede méthyle et d'éthyle]
[1]
  cinétique de dissolution in vitro: lente et limitée
[2]
  cinétiques de dissolution: très rapides
[3]
  Concentration: 0,0 ng/ml
[4]; 10.2 min
  % DE DOSE ENTRES DANS L'ORGANISME APRES ABSORPTION ET PASSAGE HEPATIQUE: 2,5%
[4]; 19.8 min
  % DE DOSE ENTRES DANS L'ORGANISME APRES ABSORPTION ET PASSAGE HEPATIQUE: 1,6%
[4]; 30 min
  % DE DOSE ENTRES DANS L'ORGANISME APRES ABSORPTION ET PASSAGE HEPATIQUE: 4,5%
[4]; 39.6 min
  % DE DOSE ENTRES DANS L'ORGANISME APRES ABSORPTION ET PASSAGE HEPATIQUE: 6,6%
[4]; 49.8 min
  % DE DOSE ENTRES DANS L'ORGANISME APRES ABSORPTION ET PASSAGE HEPATIQUE: 7,0%
[4]; 60 min
  % DE DOSE ENTRES DANS L'ORGANISME APRES ABSORPTION ET PASSAGE HEPATIQUE: 9,3%
[4]; 75 min
  % DE DOSE ENTRES DANS L'ORGANISME APRES ABSORPTION ET PASSAGE HEPATIQUE: 11%
[4]; 90 min
  % DE DOSE ENTRES DANS L'ORGANISME APRES ABSORPTION ET PASSAGE HEPATIQUE: 11,4%
[4]; 120 min
  % DE DOSE ENTRES DANS L'ORGANISME APRES ABSORPTION ET PASSAGE HEPATIQUE: 14,0%
[4]; 180 min
  % DE DOSE ENTRES DANS L'ORGANISME APRES ABSORPTION ET PASSAGE HEPATIQUE: 16,6%
[4]; 240 min
  % DE DOSE ENTRES DANS L'ORGANISME APRES ABSORPTION ET PASSAGE HEPATIQUE: 18%
[4]; 360 min
  % DE DOSE ENTRES DANS L'ORGANISME APRES ABSORPTION ET PASSAGE HEPATIQUE: 19,8%
[4]; 480 min
  % DE DOSE ENTRES DANS L'ORGANISME APRES ABSORPTION ET PASSAGE HEPATIQUE: 21,2%
[4]; 600 min
  % DE DOSE ENTRES DANS L'ORGANISME APRES ABSORPTION ET PASSAGE HEPATIQUE: 22,6%
[4]; 720 min
  % DE DOSE ENTRES DANS L'ORGANISME APRES ABSORPTION ET PASSAGE HEPATIQUE: 23,8%
  biodisponibilité: 31%
[4]; po
  BIODIOPONIBILITE RELATIVE PAR RAPPORT A LA SOLUTION: 31%
[5]
  solubilité dans l'eau: faible
[6]
  concentration at 0.17 h: 1.2 ng/mL
  concentration at 0.33 h: 1.4 ng/mL
  concentration at 0.5 h: 2.7 ng/mL
  concentration at 0.66 h: 4.2 ng/mL
  concentration at 0.83 h: 5 ng/mL
  concentration at 1 h: 6 ng/mL
  concentration at 1.25 h: 6.8 ng/mL
  concentration at 1.5 h: 6.5 ng/mL
  concentration at 2 h: 6.2 ng/mL
  concentration at 3 h: 5.1 ng/mL
  concentration at 4 h: 4 ng/mL
  concentration at 6 h: 2.4 ng/mL
  concentration at 8 h: 1.6 ng/mL
  concentration at 10 h: 1.4 ng/mL
  concentration at 12 h: 1.2 ng/mL
  concentration at 14 h: 1 ng/mL
  concentration at 24 h: 1.2 ng/mL
